In series [1] the test system is audiogenic seizure-sensitive juvenile DBA/2J mice. The experiment in a line: Audiogenic seizure-sensitive juvenile DBA/2J mouse model of generalized tonic-clonic seizures. The series is classed as in vivo. Also noted: key: 0 none, 1 wild running, 2 clonus, 3 hind-limb tonic extension. The settings on record: oral gavage, mean ± SEM. The text has this:
Audiogenic Seizure-Sensitive Juvenile DBA/2J Mouse Model of Generalized Tonic-Clonic Seizures
The inbred DBA/2J mouse strain carries an increased general susceptibility for acute generalized convulsive seizures induced by either pharmacological, electrical or, as juvenile, auditory stimuli. At the age of 17 to 28 days (juvenile), they show tonic-clonic convulsions when exposed to a loud tone.
Male juvenile DBA/2J mice (22-24 days old, body weight between 6.6 and 14.5 grams) were used. Each mouse was placed individually in the exposure chamber, an hemispheric acrylic glass dome (diameter: 50 cm) within a sound-attenuated box. After 60 seconds of habituation, an auditory stimulus of mixed frequency tone (15-20 kHz at 110 dB) was played from a speaker placed on the top center of the dome.
The sound-attenuated box was equipped with lights and a camera system in order to observe and record the behavioral seizure response classified as following: • stage 0, no response • stage 1, wild running • stage 2, clonus • stage 3, tonic extension of the hind limbs.
(§1) Different combination efficacy experiments are performed. […] Each experiment consists of four treatment groups: • 1. Vehicle (10% Polyethylene glycol400 (PEG400)/90% methylcellulose (0.5% in water; MC0.5%)), 3 h before exposure to the auditory stimulus+vehicle, 1 h before exposure to the auditory stimulus; • 2. COMPOUND 1 (in 10% PEG400/90% MC0.5%), 3 h before exposure to the auditory stimulus+vehicle, 1 h before exposure to the auditory stimulus; • 3. Vehicle, 3 h before exposure to the auditory stimulus+AED (in 10% PEG400/90% MC0.5%), 1 h before exposure to the auditory stimulus; and • 4. COMPOUND 1 (in 10% PEG400/90% MC0.5%), 3 h before exposure to the auditory stimulus+AED (in 10% PEG400/90% MC0.5%), 1 h before exposure to the auditory stimulus.

Series [2] can be described thus: Plasma and brain concentrations of drugs at the end of the audiogenic seizure experiment (LC-MS). The series is classed as in vivo, mouse. Particulars: for concentration at 1 h: DBA/2J, mouse, oral; for concentration at 1 h / Brain concentration total: analyte VPA, oral gavage, mean ± SEM. The procedure: Briefly, blood was sampled from the vena cava caudalis with a syringe pre-filled with EDTA (ethylenediamine tetraacetic acid) as anticoagulant and centrifuged to yield plasma (for 10 minutes, at 4° C. and 5000 rpm (rounds per minute)). Brain was sampled and homogenized into one volume of cold phosphate buffer (pH 7.4). Following extraction with methanol, concentrations of the compound in plasma and brain were determined using liquid chromatography coupled to mass spectrometry.
as §1

The mark [3] stands for this setting: vehicle 3 h + VPA 100 mg/kg 1 h before stimulus.

“And” between values parts separate entries of the source, which are not always exact repeats. Equal values may be shown once. Read-outs that look alike come from different tables or passages of the source.

Take `CCCC(CCC)C(=O)O` [VPA, 2-propylpentanoic acid]: the “Seizure stage (maximal seizure stage observed during exposure to auditory stimulus)” value in series [1] (vehicle 3 h + VPA 30 mg/kg 1 h before stimulus) is 2.9 ± 0.1; in series [1] (setting [3]) it was 2.7 ± 0.2 and 2.8 ± 0.2; in series [1] (vehicle 3 h + VPA 100 mg/kg 1 h before stimulus, listed as valproic acid), 3. In addition, in series [2] (COMPOUND 1 and valproic acid, juvenile DBA/2J mice), the “plasma and brain concentrations after administration of the compounds alone or in combination” value is “similar”. Moreover, the concentration at 1 h in series [2] (brain, 30 mg/kg, vehicle 3 h + VPA 30 mg/kg 1 h before stimulus, read-out: Brain concentration total) was 1260 ± 399 ng/g; in series [2] (brain, 100 mg/kg, vehicle 3 h + VPA 100 mg/kg 1 h before stimulus, read-out: Brain concentration total), 10100 ± 2040 ng/g; in series [2] (brain, 200 mg/kg, vehicle 3 h + VPA 200 mg/kg 1 h before stimulus, read-out: Brain concentration total), 44200 ± 4090 ng/g; in series [2] (brain, COMPOUND 1 10 mg/kg 3 h + VPA 100 mg/kg 1 h before stimulus, read-out: Brain concentration total), 14600 ± 2910 ng/g; in series [2] (brain, COMPOUND 1 10 mg/kg 3 h + VPA 200 mg/kg 1 h before stimulus, read-out: Brain concentration total), 34700 ± 4440 ng/g; in series [2] (brain, COMPOUND 1 30 mg/kg 3 h + VPA 30 mg/kg 1 h before stimulus, read-out: Brain concentration total), 1010 ± 117 ng/g. Moreover, the concentration at 1 h in series [2] (brain, COMPOUND 1 30 mg/kg 3 h + VPA 100 mg/kg 1 h before stimulus, read-out: Brain concentration total) was determined as 5950 ± 946 ng/g; in series [2] (brain, COMPOUND 1 30 mg/kg 3 h + VPA 200 mg/kg 1 h before stimulus, read-out: Brain concentration total), 27000 ± 6540 ng/g; in series [2] (plasma, 30 mg/kg, vehicle 3 h + VPA 30 mg/kg 1 h before stimulus, read-out: Plasma concentration total), 23 ± 3.61 µg/mL; in series [2] (plasma, 100 mg/kg, vehicle 3 h + VPA 100 mg/kg 1 h before stimulus, read-out: Plasma concentration total), 53.7 ± 4.04 µg/mL; in series [2] (plasma, 200 mg/kg, vehicle 3 h + VPA 200 mg/kg 1 h before stimulus, read-out: Plasma concentration total) it was 133 ± 10.7 µg/mL; in series [2] (plasma, COMPOUND 1 10 mg/kg 3 h + VPA 100 mg/kg 1 h before stimulus, read-out: Plasma concentration total) it was 57.3 ± 3.76 µg/mL. Besides, the concentration at 1 h in series [2] (plasma, COMPOUND 1 10 mg/kg 3 h + VPA 200 mg/kg 1 h before stimulus, read-out: Plasma concentration total) turned out to be 123 ± 11.7 µg/mL; in series [2] (plasma, COMPOUND 1 30 mg/kg 3 h + VPA 30 mg/kg 1 h before stimulus, read-out: Plasma concentration total), 19.9 ± 1.65 µg/mL; in series [2] (plasma, COMPOUND 1 30 mg/kg 3 h + VPA 100 mg/kg 1 h before stimulus, read-out: Plasma concentration total) it was 63.4 ± 3.21 µg/mL; in series [2] (plasma, COMPOUND 1 30 mg/kg 3 h + VPA 200 mg/kg 1 h before stimulus, read-out: Plasma concentration total), 110 ± 11.4 µg/mL. Further, the Brain concentration total was 9278 ± 2535 ng/g in series [2] (setting [3]) and 24746 ± 3564 ng/g in series [2] (vehicle 3 h + VPA 200 mg/kg 1 h before stimulus).
